Data taken from publication PMC3030271 (ACS medicinal chemistry letters, 2010).

Columns and labels:
Assay type in all cases: cell-based
hA3AR = target: T1, hA3AR (Homo sapiens, UniProt P0DMS8); experiment: Cyclic AMP functional assay at the hA3AR expressed in CHO cells
T1 sequence (P0DMS8 1-318): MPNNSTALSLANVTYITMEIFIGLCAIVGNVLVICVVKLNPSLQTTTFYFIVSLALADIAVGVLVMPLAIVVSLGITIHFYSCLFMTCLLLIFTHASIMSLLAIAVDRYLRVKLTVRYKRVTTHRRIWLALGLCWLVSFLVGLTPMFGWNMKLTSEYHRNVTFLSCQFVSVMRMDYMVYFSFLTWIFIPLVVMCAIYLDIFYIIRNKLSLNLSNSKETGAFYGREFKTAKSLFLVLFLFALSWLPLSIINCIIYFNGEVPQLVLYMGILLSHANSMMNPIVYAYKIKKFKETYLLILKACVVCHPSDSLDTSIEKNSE

hA2AAR = hA2AAR (Homo sapiens, UniProt P29274); experiment: Cyclic AMP functional assay at the hA2AAR expressed in CHO cells; conditions: compared to the standard CGS21680
hA2BAR = target: T2, hA2BAR (Homo sapiens, UniProt P29275); experiment: Cyclic AMP accumulation at the hA2BAR expressed in CHO cells
T2 sequence (P29275 1-332): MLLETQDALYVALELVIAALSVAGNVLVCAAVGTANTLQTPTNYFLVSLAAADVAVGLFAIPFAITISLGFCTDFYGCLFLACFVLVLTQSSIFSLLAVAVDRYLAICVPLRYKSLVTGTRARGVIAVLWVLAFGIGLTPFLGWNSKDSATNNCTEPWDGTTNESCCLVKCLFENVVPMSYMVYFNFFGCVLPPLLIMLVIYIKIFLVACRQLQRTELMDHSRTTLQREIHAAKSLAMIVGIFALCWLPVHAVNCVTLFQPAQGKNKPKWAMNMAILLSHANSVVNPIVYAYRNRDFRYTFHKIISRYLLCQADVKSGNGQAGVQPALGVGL

Chain of hA2AAR (P29274 whole entry): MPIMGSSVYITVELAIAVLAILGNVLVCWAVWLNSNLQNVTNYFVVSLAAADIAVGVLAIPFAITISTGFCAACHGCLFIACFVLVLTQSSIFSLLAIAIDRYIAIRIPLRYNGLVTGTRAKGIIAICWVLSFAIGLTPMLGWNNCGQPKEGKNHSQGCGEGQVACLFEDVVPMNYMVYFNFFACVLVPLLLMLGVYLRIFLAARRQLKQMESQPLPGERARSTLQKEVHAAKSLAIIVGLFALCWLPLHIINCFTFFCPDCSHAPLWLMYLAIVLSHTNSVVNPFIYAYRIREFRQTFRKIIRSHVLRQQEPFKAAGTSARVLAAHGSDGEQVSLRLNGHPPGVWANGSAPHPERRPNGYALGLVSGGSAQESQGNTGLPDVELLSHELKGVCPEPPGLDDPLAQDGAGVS

Functional behaviour at the hA3AR (cyclic AMP assay) (hA3AR)	Functional behaviour at the hA2AAR (cyclic AMP assay) (hA2AAR)	Functional behaviour at the hA2BAR (cyclic AMP accumulation) (hA2BAR)	Compound
potent and full antagonists	full agonist	weak partial agonist	CCCCC#Cc1nc(N)c2ncn([C@@H]3SC[C@@H](O)[C@H]3O)c2n1 [Compound 4a]
potent and full antagonists			CCCC/C=C/c1nc(N)c2ncn([C@@H]3SC[C@@H](O)[C@H]3O)c2n1 [Compound 4b]
